{
  "source": "patent US9126999B2",
  "about": "“Tetrahydropyrazolopyrimidine compounds” (EISAI R&D MANAGEMENT CO., LTD., priority 2012, dated 2015)",
  "key": {"Human TLR7/8": {"tested_on": "T1, Human TLR7/8", "T1 construct": "IC50; other: Hu PBMC; ligand RNA-Ig; analyte IL-6; analyte TNFα; ligand R848; IC50 against the RNA-Ig TLR7/8 stimulus; cytokine responses to RNA-Ig complexes in vitro; potency against the RNA-Ig TLR7/8 stimulus versus HCQ", "assay": "Human PBMC cell-based assay, R848 stimulus, IL-6 ELISA", "conditions": "Hu PBMC; ligand R848; analyte IL-6", "protocol": "(§1) Human peripheral blood mononuclear cells (PBMC) were isolated from freshly-drawn heparinized (10 USP units/ml, Hospira, Lakeforest, Ill.) healthy donor whole blood by density gradient (Histopaque® 1077, Sigma, Inc., St. Louis, Mo.). Briefly, 25 ml blood was diluted with 15 ml PBS (without Ca^2+, Mg^2+) in a 50 ml conical tube, and 12 ml Histopaque was underlaid using a spinal needle. Tubes were centrifuged for 45 minutes at 1200 rpm (350×g), and PBMC were collected from the buffy coat. Cells were then washed twice in PBS, and red blood cells were lysed by suspension in 5 ml ammonium chloride solution (1× Red Blood Cell Lysis Buffer, eBioscience) for 5 minutes at room temperature. […]\n(§2) Antagonist compounds solubilized and serial diluted in 100% DMSO were added in triplicate to cells to yield a final concentration of 0.1% DMSO (v/v). […] Cell culture supernatants were collected, and levels of various human cytokines were assessed as indicated by standard ELISA procedure according to the manufacturer's recommended protocol (BD Biosciences, Inc., San Diego, Calif.)."}, "Human TLR4": {"target": "Human TLR4 (Homo sapiens, UniProt O00206)", "sequence (O00206 24-839)": "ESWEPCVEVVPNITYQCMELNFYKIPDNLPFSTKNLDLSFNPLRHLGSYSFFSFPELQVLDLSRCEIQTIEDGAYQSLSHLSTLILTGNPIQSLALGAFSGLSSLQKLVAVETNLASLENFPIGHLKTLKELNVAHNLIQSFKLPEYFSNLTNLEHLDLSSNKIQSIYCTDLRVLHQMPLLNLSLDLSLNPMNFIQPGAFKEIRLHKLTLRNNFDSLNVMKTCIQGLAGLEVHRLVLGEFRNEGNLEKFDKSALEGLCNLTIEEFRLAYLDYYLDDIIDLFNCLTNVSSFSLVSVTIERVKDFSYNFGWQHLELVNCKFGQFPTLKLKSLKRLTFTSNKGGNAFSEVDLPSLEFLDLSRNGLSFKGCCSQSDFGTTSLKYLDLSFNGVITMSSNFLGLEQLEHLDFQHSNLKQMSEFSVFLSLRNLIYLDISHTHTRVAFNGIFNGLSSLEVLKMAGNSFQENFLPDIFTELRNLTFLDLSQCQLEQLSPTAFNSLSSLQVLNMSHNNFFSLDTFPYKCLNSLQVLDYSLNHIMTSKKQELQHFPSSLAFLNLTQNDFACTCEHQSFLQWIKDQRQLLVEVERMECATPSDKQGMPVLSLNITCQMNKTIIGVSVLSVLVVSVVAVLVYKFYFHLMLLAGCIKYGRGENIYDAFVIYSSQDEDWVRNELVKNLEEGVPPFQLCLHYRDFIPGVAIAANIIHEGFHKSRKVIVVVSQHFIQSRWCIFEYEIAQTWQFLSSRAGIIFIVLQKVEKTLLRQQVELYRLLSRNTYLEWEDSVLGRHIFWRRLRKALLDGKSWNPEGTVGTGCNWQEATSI", "sequence (Q9Y6Y9 19-160 partner)": "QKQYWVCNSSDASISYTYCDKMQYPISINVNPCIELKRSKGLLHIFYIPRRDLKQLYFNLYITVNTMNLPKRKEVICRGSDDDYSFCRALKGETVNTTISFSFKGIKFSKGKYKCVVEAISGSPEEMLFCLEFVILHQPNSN", "assay": "Human PBMC cell-based assay, LPS stimulus, IL-6 ELISA", "parameters": "endogenous in cells; host or cells: primary human PBMC from healthy donor blood", "conditions": "Hu PBMC; ligand LPS; analyte IL-6", "protocol": "as §1, §2"}, "Human TLR9": {"target": "T2, Human TLR9 (Homo sapiens, UniProt Q9NR96)", "T2 sequence (Q9NR96 26-1032)": "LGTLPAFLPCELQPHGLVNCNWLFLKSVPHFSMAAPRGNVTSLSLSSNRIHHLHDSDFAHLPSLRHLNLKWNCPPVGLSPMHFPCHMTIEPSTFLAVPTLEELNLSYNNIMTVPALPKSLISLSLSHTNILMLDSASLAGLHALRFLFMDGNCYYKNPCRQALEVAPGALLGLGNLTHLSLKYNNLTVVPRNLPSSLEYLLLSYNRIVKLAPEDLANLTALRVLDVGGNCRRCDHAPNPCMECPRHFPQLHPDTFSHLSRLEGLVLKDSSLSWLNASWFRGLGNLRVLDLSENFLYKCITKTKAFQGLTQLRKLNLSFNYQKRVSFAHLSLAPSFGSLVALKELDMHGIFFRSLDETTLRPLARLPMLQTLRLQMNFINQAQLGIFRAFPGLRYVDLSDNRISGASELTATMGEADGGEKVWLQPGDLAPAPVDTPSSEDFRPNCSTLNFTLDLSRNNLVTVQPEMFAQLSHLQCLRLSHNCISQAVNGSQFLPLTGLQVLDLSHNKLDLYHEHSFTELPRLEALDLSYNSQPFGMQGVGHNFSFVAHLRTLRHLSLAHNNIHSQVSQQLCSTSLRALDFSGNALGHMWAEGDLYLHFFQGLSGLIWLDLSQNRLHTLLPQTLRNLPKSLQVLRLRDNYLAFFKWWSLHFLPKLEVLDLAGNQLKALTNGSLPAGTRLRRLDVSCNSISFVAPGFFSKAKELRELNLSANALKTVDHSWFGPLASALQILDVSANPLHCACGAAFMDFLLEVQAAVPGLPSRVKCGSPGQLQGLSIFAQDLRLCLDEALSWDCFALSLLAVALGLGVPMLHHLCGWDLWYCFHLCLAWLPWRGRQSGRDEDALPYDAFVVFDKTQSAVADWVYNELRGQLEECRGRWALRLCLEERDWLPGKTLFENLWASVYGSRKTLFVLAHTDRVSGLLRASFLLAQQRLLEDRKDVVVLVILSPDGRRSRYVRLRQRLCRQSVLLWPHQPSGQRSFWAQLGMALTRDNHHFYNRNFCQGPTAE", "assay": "Human PBMC cell-based assay, CpG-ODN stimulus, IL-6 ELISA", "parameters": "endogenous in cells; host or cells: primary human PBMC from healthy donor blood", "conditions": "Hu PBMC; ligand CpG-ODN; analyte IL-6", "protocol": "as §1, §2"}},
  "data": [
    {"smiles": "COc1ccc([C@@H]2C[C@H](C(F)(F)F)n3nc(-c4ccc(C(=O)N5CCNCC5)cc4)cc3N2)cc1OC", "note": "[ER-892887, (4-((5S,7R)-5-(3,4-dimethoxyphenyl)-7-(trifluoromethyl)-4,5,6,7-tetrahydropyrazolo[1,5-a]pyrimidin-2-yl)phenyl)(piperazin-1-yl)methanone]", "values": [
      {"measurement": "IC50", "setting": "Human TLR7/8", "value": 0.016, "unit": "µM"},
      {"measurement": "IC50", "setting": "Human TLR4", "value": "> 10", "unit": "µM"},
      {"measurement": "IC50", "setting": "Human TLR9", "value": "> 10", "unit": "µM"}
    ]}
  ]
}
